ChEMBL document CHEMBL1201862, “PubChem BioAssay data set” (2004)
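Compound exposure: 48 hours, 5 concentrations, 96-well plates. The concentration for 50% growth inhibition is given as GI50.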 The source made the active and inactive calls. Rule as the data show it: active = GI50 up to about 1.1 µM and inactive = higher.

What was measured:
Experiment in all cases: inhibition of tumour cell growth, NCI panel, 48 h
786-0 = tested on: 786-0
A498 = tested on: A498
A549 = tested on: A549
ACHN = tested on: ACHN
BT-549 = tested on: BT-549
CAKI-1 = tested on: CAKI-1
CCRF-CEM = tested on: CCRF-CEM
COLO 205 = tested on: COLO 205
DU-145 = tested on: DU-145
EKVX = tested on: EKVX
HCC 2998 = tested on: HCC 2998
HCT-116 = tested on: HCT-116
HCT-15 = tested on: HCT-15
HL-60 = tested on: HL-60
HOP-62 = tested on: HOP-62
HOP-92 = tested on: HOP-92
HT-29 = tested on: HT-29
Hs-578T = tested on: Hs-578T
IGROV-1 = tested on: IGROV-1
K562 = tested on: K562
KM12 = tested on: KM12
LOX IMVI = tested on: LOX IMVI
M14 = tested on: M14
MCF7 = tested on: MCF7
MDA-MB-231 = tested on: MDA-MB-231
MDA-MB-435 = tested on: MDA-MB-435
MDA-N = tested on: MDA-N
MOLT-4 = tested on: MOLT-4
Malme-3M = tested on: Malme-3M
NCI-H226 = tested on: NCI-H226
NCI-H23 = tested on: NCI-H23
NCI-H460 = tested on: NCI-H460
NCI-H522 = tested on: NCI-H522
NCI/ADR-RES = tested on: NCI/ADR-RES
OVCAR-3 = tested on: OVCAR-3
OVCAR-4 = tested on: OVCAR-4
OVCAR-5 = tested on: OVCAR-5
OVCAR-8 = tested on: OVCAR-8
PC-3 = tested on: PC-3
RPMI-8226 = tested on: RPMI-8226
RXF 393 = tested on: RXF 393
SF-268 = tested on: SF-268
SF-295 = tested on: SF-295
SF-539 = tested on: SF-539
SK-MEL-28 = tested on: SK-MEL-28
SK-MEL-2 = tested on: SK-MEL-2
SK-MEL-5 = tested on: SK-MEL-5
SK-OV-3 = tested on: SK-OV-3
SN12C = tested on: SN12C
SNB-19 = tested on: SNB-19
SNB-75 = tested on: SNB-75
SR = tested on: SR
SW-620 = tested on: SW-620
T47D = tested on: T47D
TK-10 = tested on: TK-10
U-251 = tested on: U-251
UACC-257 = tested on: UACC-257
UACC-62 = tested on: UACC-62
UO-31 = tested on: UO-31

Measured: GI50

CC(C)C(/C=C/c1ccccc1)=N\NC(=S)NN
inactive: 786-0 56.1 µM | A498 > 100 µM | A549 51.1 µM | ACHN 40.6 µM | BT-549 > 96.2 µM | CAKI-1 39.4 µM | CCRF-CEM 3.93 µM | COLO 205 55.1 µM | DU-145 > 100 µM | EKVX 38 µM | HCC 2998 99.1 µM | HCT-116 31.5 µM | HL-60 19.4 µM | HOP-62 > 84.1 µM | HOP-92 36.4 µM | HT-29 98.2 µM | Hs-578T 80.5 µM | IGROV-1 67.8 µM | K562 24 µM | KM12 > 86.1 µM | LOX IMVI 16.5 µM | M14 > 100 µM | MCF7 30.6 µM | MDA-MB-231 > 100 µM | MDA-MB-435 49.5 µM | MDA-N 26.6 µM | MOLT-4 12.7 µM | Malme-3M > 100 µM | NCI-H226 > 70.3 µM | NCI-H23 > 77.3 µM | NCI-H460 40.6 µM | NCI-H522 16.7 µM | NCI/ADR-RES 41.6 µM | OVCAR-3 21.3 µM | OVCAR-4 50.5 µM | OVCAR-5 > 100 µM | OVCAR-8 45.2 µM | PC-3 53.3 µM | RPMI-8226 14.2 µM | RXF 393 99.8 µM | SF-268 20.7 µM | SF-295 67.6 µM | SF-539 > 51.1 µM | SK-MEL-28 > 100 µM | SK-MEL-2 > 55.6 µM | SK-MEL-5 33 µM | SK-OV-3 > 94.4 µM | SN12C > 100 µM | SNB-19 > 100 µM | SNB-75 > 100 µM | SW-620 66.5 µM | T47D 47 µM | TK-10 > 100 µM | U-251 > 67.9 µM | UACC-257 > 100 µM | UACC-62 35.3 µM | UO-31 32.3 µM
31.6 µM: HCT-15
active: SR 546 nM
